From ChEMBL document CHEMBL5303573, “Mapping human microbiome drug metabolism by gut bacteria and their genes” (Nature, 2019)

What was measured:
[1] = The drug is tested on Bifidobacterium breve strain: DSM20213 for biotransformation. The drug concentrations were measured before and after a 12-h incubation by liquid-chromatography-coupled mass spectrometry (LC–MS); conditions: 2 µM
[2] = The drug is tested on Bacteroides fragilis strain: HMW610 for biotransformation. The drug concentrations were measured before and after a 12-h incubation by liquid-chromatography-coupled mass spectrometry (LC–MS); conditions: 2 µM
[3] = The drug is tested on Bacteroides fragilis strain: HMW615 for biotransformation. The drug concentrations were measured before and after a 12-h incubation by liquid-chromatography-coupled mass spectrometry (LC–MS); conditions: 2 µM
[4] = The drug is tested on Bacteroides sp. WH2 strain: WH2 for biotransformation. The drug concentrations were measured before and after a 12-h incubation by liquid-chromatography-coupled mass spectrometry (LC–MS); conditions: bacteroides sp. wh2, 12 h, 2 µM
[5] = The drug is tested on Anaerotruncus colihominis strain: DSM17241 for biotransformation. The drug concentrations were measured before and after a 12-h incubation by liquid-chromatography-coupled mass spectrometry (LC–MS); conditions: 2 µM
[6] = The drug is tested on Blautia luti strain: DSM14534 for biotransformation. The drug concentrations were measured before and after a 12-h incubation by liquid-chromatography-coupled mass spectrometry (LC–MS); format: ADME; parameters: dose 2 uM, timepoint 0 vs 12 hours; conditions: 2 µM
[7] = The drug is tested on Clostridium ramosum strain: DSM1402 for biotransformation. The drug concentrations were measured before and after a 12-h incubation by liquid-chromatography-coupled mass spectrometry (LC–MS); conditions: thomasclavelia ramosa, 2 µM
[8] = The drug is tested on Dorea formicigenerans strain: ATCC27755 for biotransformation. The drug concentrations were measured before and after a 12-h incubation by liquid-chromatography-coupled mass spectrometry (LC–MS); conditions: 2 µM
[9] = The drug is tested on Eubacterium ventriosum strain: ATCC27560 for biotransformation. The drug concentrations were measured before and after a 12-h incubation by liquid-chromatography-coupled mass spectrometry (LC–MS); format: ADME; parameters: dose 2 uM, timepoint 0 vs 12 hours; conditions: 2 µM
[10] = The drug is tested on Ruminococcus gnavus strain: ATCC29149 for biotransformation. The drug concentrations were measured before and after a 12-h incubation by liquid-chromatography-coupled mass spectrometry (LC–MS); conditions: mediterraneibacter gnavus, 2 µM
[11] = The drug is tested on Ruminococcus lactaris strain: ATCC29176 for biotransformation. The drug concentrations were measured before and after a 12-h incubation by liquid-chromatography-coupled mass spectrometry (LC–MS); conditions: 2 µM
[12] = The drug is tested on Ruminococcus torques strain: ATCC27756 for biotransformation. The drug concentrations were measured before and after a 12-h incubation by liquid-chromatography-coupled mass spectrometry (LC–MS); format: ADME; parameters: dose 2 uM, timepoint 0 vs 12 hours; conditions: 2 µM
[13] = The drug is tested on Edwardsiella tarda strain: ATCC23685 for biotransformation. The drug concentrations were measured before and after a 12-h incubation by liquid-chromatography-coupled mass spectrometry (LC–MS); conditions: 2 µM
[14] = The drug is tested on Enterobacter cancerogenus strain: ATCC35316 for biotransformation. The drug concentrations were measured before and after a 12-h incubation by liquid-chromatography-coupled mass spectrometry (LC–MS); conditions: 2 µM
[15] = bacteroides intestinalis, 12 h, 2 µM
Description: The drug is tested on Bacteroides intestinalis strain: DSM17393 for biotransformation. The drug concentrations were measured before and after a 12-h incubation by liquid-chromatography-coupled mass spectrometry (LC–MS)

[16] = bacteroides thetaiotaomicron, 12 h, 2 µM
Description: The drug is tested on Bacteroides thetaiotaomicron strain: 3731 for biotransformation. The drug concentrations were measured before and after a 12-h incubation by liquid-chromatography-coupled mass spectrometry (LC–MS)

[17] = roseburia intestinalis, 12 h, 2 µM
Description: The drug is tested on Roseburia intestinalis strain: L1-82 for biotransformation. The drug concentrations were measured before and after a 12-h incubation by liquid-chromatography-coupled mass spectrometry (LC–MS)

[18] = The drug is tested on Bacteroides xylanisolvens strain: DSM18836 for biotransformation. The drug concentrations were measured before and after a 12-h incubation by liquid-chromatography-coupled mass spectrometry (LC–MS); conditions: 2 µM
[19] = limosilactobacillus reuteri cf48-3a, 12 h, 2 µM
Description: The drug is tested on Lactobacillus reuteri CF48-3A strain: BEI HM-102 for biotransformation. The drug concentrations were measured before and after a 12-h incubation by liquid-chromatography-coupled mass spectrometry (LC–MS)

[20] = The drug is tested on Clostridium sporogenes strain: ATCC15579 for biotransformation. The drug concentrations were measured before and after a 12-h incubation by liquid-chromatography-coupled mass spectrometry (LC–MS); conditions: 2 µM

SMILES	Bacterial Biotransformation [1]	Bacterial Biotransformation [2]	Bacterial Biotransformation [3]	Bacterial Biotransformation [4]	Bacterial Biotransformation [5]	Bacterial Biotransformation [6]	Bacterial Biotransformation [7]	Bacterial Biotransformation [8]	Bacterial Biotransformation [9]	Bacterial Biotransformation [10]	Bacterial Biotransformation [11]	Bacterial Biotransformation [12]	Bacterial Biotransformation [13]	Bacterial Biotransformation [14]	Bacterial Biotransformation [15]	Bacterial Biotransformation [16]	Bacterial Biotransformation [17]	Bacterial Biotransformation [18]	Bacterial Biotransformation [19]	Bacterial Biotransformation [20]
COc1cc2nc(N3CCN(C(=O)C4COc5ccccc5O4)CC3)nc(N)c2cc1OC.CS(=O)(=O)O (configuration not stated) [DOXAZOSIN MESYLATE]	Compound NOT metabolized	Compound NOT metabolized	Compound NOT metabolized	Compound NOT metabolized	Compound NOT metabolized	Compound NOT metabolized	Compound NOT metabolized	Compound NOT metabolized	Compound NOT metabolized	Compound NOT metabolized	Compound NOT metabolized	Compound NOT metabolized	Compound NOT metabolized	Compound NOT metabolized	Compound NOT metabolized	Compound NOT metabolized	Compound NOT metabolized			
CNCC[C@H](Oc1cccc2ccccc12)c1cccs1 [DULOXETINE]	Compound NOT metabolized		Compound NOT metabolized		Compound NOT metabolized	Compound NOT metabolized	Compound NOT metabolized	Compound NOT metabolized	Compound NOT metabolized	Compound NOT metabolized		Compound NOT metabolized		Compound metabolized	Compound NOT metabolized	Compound NOT metabolized	Compound NOT metabolized	Compound metabolized	Compound NOT metabolized	
COC1=C(OC)C(=O)C(CCCCCCCCCCO)=C(C)C1=O [IDEBENONE]	Compound NOT metabolized	Compound metabolized		Compound NOT metabolized	Compound NOT metabolized	Compound metabolized	Compound NOT metabolized	Compound NOT metabolized	Compound NOT metabolized	Compound NOT metabolized	Compound metabolized	Compound NOT metabolized	Compound NOT metabolized	Compound NOT metabolized	Compound NOT metabolized	Compound NOT metabolized	Compound NOT metabolized	Compound metabolized	Compound NOT metabolized	Compound metabolized
CN1CCC(=C2c3ccccc3CC(=O)c3sccc32)CC1.O=C(O)/C=C/C(=O)O [KETOTIFEN FUMARATE]	Compound NOT metabolized	Compound NOT metabolized		Compound NOT metabolized	Compound NOT metabolized	Compound NOT metabolized	Compound NOT metabolized	Compound NOT metabolized	Compound NOT metabolized	Compound NOT metabolized	Compound NOT metabolized	Compound NOT metabolized	Compound NOT metabolized	Compound NOT metabolized	Compound NOT metabolized	Compound NOT metabolized	Compound NOT metabolized	Compound NOT metabolized	Compound NOT metabolized	Compound NOT metabolized
COc1ccccc1N1CCN(CC(O)COc2cccc3ccccc23)CC1 (configuration not stated) [NAFTOPIDIL]	Compound NOT metabolized	Compound metabolized		Compound NOT metabolized	Compound NOT metabolized	Compound NOT metabolized	Compound NOT metabolized	Compound NOT metabolized	Compound NOT metabolized	Compound NOT metabolized	Compound NOT metabolized	Compound NOT metabolized	Compound NOT metabolized	Compound NOT metabolized	Compound NOT metabolized	Compound NOT metabolized	Compound NOT metabolized	Compound NOT metabolized	Compound NOT metabolized	Compound NOT metabolized
C#C[C@]1(OC(C)=O)CC[C@H]2[C@@H]3CCC4=C/C(=N/O)CC[C@@H]4[C@H]3CC[C@@]21CC [NORGESTIMATE]	Compound NOT metabolized	Compound NOT metabolized	Compound NOT metabolized	Compound NOT metabolized	Compound NOT metabolized	Compound NOT metabolized	Compound NOT metabolized	Compound NOT metabolized	Compound NOT metabolized	Compound NOT metabolized	Compound NOT metabolized	Compound NOT metabolized	Compound NOT metabolized	Compound NOT metabolized	Compound NOT metabolized	Compound NOT metabolized	Compound NOT metabolized	Compound NOT metabolized		
